# ChEMBL document CHEMBL4507294, “Data for DCP probe MSD-CYP11B2” (2021)
# Tests used:
# [1] = target: Serine/threonine-protein kinase OSR1 (Homo sapiens) (UniProt O95747); conditions: Compound concentration 1000.0 nM
# [2] = test system: Tyrosine-protein kinase ABL1 (Homo sapiens), P00519 [Q252H]; conditions: Compound concentration 1000.0 nM
# [3] = test system: Epidermal growth factor receptor (Homo sapiens), P00533 [UNDEFINED MUTATION]; conditions: Compound concentration 1000.0 nM
# [4] = target: cAMP-dependent protein kinase catalytic subunit PRKX (Homo sapiens) (UniProt P51817); conditions: Compound concentration 1000.0 nM
# [5] = target: Serine/threonine-protein kinase/endoribonuclease IRE1 (Homo sapiens) (UniProt O75460); conditions: Compound concentration 1000.0 nM
# [6] = target: 5-hydroxytryptamine receptor 6 (Homo sapiens, UniProt P50406); conditions: Compound concentration 10.0 uM
# [7] = test system: ALK tyrosine kinase receptor (Homo sapiens), Q9UM73 [C1156Y]; conditions: Compound concentration 1000.0 nM
# [8] = target: RAC-alpha serine/threonine-protein kinase (Homo sapiens) (UniProt P31749); conditions: Compound concentration 1000.0 nM
# [9] = test system: Phosphatidylinositol 4,5-bisphosphate 3-kinase catalytic subunit alpha isoform (Homo sapiens), P42336 [M1043I]; conditions: Compound concentration 1000.0 nM
# [10] = target: Ribosomal protein S6 kinase alpha-1 (Homo sapiens) (UniProt Q15418); conditions: Compound concentration 1000.0 nM
# [11] = target: Alpha-1B adrenergic receptor (Homo sapiens) (UniProt P35368); conditions: Compound concentration 10.0 uM
# [12] = target: Testis-specific serine/threonine-protein kinase 1 (Homo sapiens) (UniProt Q9BXA7); conditions: Compound concentration 1000.0 nM
# [13] = target: cAMP-dependent protein kinase catalytic subunit beta (Homo sapiens) (UniProt P22694); conditions: Compound concentration 1000.0 nM
# [14] = target: MAP kinase-interacting serine/threonine-protein kinase 2 (Homo sapiens) (UniProt Q9HBH9); conditions: Compound concentration 1000.0 nM
# [15] = target: Casein kinase I isoform delta (Homo sapiens) (UniProt P48730); conditions: Compound concentration 1000.0 nM
# [16] = target: Cyclin-dependent kinase 19 (Homo sapiens) (UniProt Q9BWU1); conditions: Compound concentration 1000.0 nM
# [17] = test system: Serine/threonine-protein kinase B-raf (Homo sapiens), P15056 [V600E]; conditions: Compound concentration 1000.0 nM
# [18] = target: Receptor-type tyrosine-protein kinase FLT3 (Homo sapiens) (UniProt P36888); conditions: Compound concentration 1000.0 nM
# [19] = test system: Epidermal growth factor receptor (Homo sapiens), P00533 [UNDEFINED MUTATION]; conditions: Compound concentration 1000.0 nM; remark: listed apart in the source
# [20] = target: Serine/threonine-protein kinase Nek2 (Homo sapiens) (UniProt P51955); conditions: Compound concentration 1000.0 nM
# [21] = target: 5'-AMP-activated protein kinase catalytic subunit alpha-2 (Homo sapiens) (UniProt P54646); conditions: Compound concentration 1000.0 nM
# [22] = target: Serine/threonine-protein kinase MAK (Homo sapiens) (UniProt P20794); conditions: Compound concentration 1000.0 nM
# [23] = target: Interleukin-1 receptor-associated kinase 1 (Homo sapiens) (UniProt P51617); conditions: Compound concentration 1000.0 nM
# [24] = target: Vascular endothelial growth factor receptor 1 (Homo sapiens) (UniProt P17948); conditions: Compound concentration 1000.0 nM
# [25] = target: Receptor-type tyrosine-protein kinase FLT3 (Homo sapiens) (UniProt P36888); conditions: Compound concentration 1000.0 nM; remark: listed apart in the source
# [26] = target: AP2-associated protein kinase 1 (Homo sapiens) (UniProt Q2M2I8); conditions: Compound concentration 1000.0 nM
# [27] = target: Homeodomain-interacting protein kinase 1 (Homo sapiens) (UniProt Q86Z02); conditions: Compound concentration 1000.0 nM
# [28] = target: Serine/threonine-protein kinase D2 (Homo sapiens) (UniProt Q9BZL6); conditions: Compound concentration 1000.0 nM
# [29] = target: Ephrin type-B receptor 2 (Homo sapiens) (UniProt P29323); conditions: Compound concentration 1000.0 nM
# [30] = target: Mitogen-activated protein kinase 10 (Homo sapiens) (UniProt P53779); conditions: Compound concentration 1000.0 nM
# [31] = target: Proto-oncogene tyrosine-protein kinase ROS (Homo sapiens) (UniProt P08922); conditions: Compound concentration 1000.0 nM
# [32] = target: Cyclin-dependent kinase 5 (Homo sapiens) (UniProt Q00535); conditions: Compound concentration 1000.0 nM
# [33] = target: Serine/threonine-protein kinase TAO2 (Homo sapiens) (UniProt Q9UL54); conditions: Compound concentration 1000.0 nM
# [34] = target: Ribosomal protein S6 kinase alpha-2 (Homo sapiens) (UniProt Q15349); conditions: Compound concentration 1000.0 nM
# [35] = target: Ribosomal protein S6 kinase alpha-3 (Homo sapiens) (UniProt P51812); conditions: Compound concentration 1000.0 nM
# [36] = target: Dual specificity protein kinase CLK1 (Homo sapiens) (UniProt P49759); conditions: Compound concentration 1000.0 nM
# [37] = target: Serine/threonine-protein kinase 4 (Homo sapiens) (UniProt Q13043); conditions: Compound concentration 1000.0 nM
# [38] = target: Mu-type opioid receptor (Homo sapiens) (UniProt P35372); conditions: Compound concentration 10.0 uM
# [39] = target: 5-hydroxytryptamine receptor 5A (Homo sapiens) (UniProt P47898); conditions: Compound concentration 10.0 uM
# [40] = target: LIM domain kinase 1 (Homo sapiens) (UniProt P53667); conditions: Compound concentration 1000.0 nM
# [41] = target: Serine/threonine-protein kinase SIK2 (Homo sapiens) (UniProt Q9H0K1); conditions: Compound concentration 1000.0 nM
# [42] = target: Tyrosine-protein kinase JAK1 (Homo sapiens) (UniProt P23458); conditions: Compound concentration 1000.0 nM
# [43] = target: Serine/threonine-protein kinase 32B (Homo sapiens) (UniProt Q9NY57); conditions: Compound concentration 1000.0 nM
# [44] = target: Serine/threonine-protein kinase LATS2 (Homo sapiens) (UniProt Q9NRM7); conditions: Compound concentration 1000.0 nM
# [45] = target: G protein-coupled receptor kinase 4 (Homo sapiens) (UniProt P32298); conditions: Compound concentration 1000.0 nM
# G protein-coupled receptor kinase 4 (Homo sapiens), sequence (P32298 whole entry, looked up): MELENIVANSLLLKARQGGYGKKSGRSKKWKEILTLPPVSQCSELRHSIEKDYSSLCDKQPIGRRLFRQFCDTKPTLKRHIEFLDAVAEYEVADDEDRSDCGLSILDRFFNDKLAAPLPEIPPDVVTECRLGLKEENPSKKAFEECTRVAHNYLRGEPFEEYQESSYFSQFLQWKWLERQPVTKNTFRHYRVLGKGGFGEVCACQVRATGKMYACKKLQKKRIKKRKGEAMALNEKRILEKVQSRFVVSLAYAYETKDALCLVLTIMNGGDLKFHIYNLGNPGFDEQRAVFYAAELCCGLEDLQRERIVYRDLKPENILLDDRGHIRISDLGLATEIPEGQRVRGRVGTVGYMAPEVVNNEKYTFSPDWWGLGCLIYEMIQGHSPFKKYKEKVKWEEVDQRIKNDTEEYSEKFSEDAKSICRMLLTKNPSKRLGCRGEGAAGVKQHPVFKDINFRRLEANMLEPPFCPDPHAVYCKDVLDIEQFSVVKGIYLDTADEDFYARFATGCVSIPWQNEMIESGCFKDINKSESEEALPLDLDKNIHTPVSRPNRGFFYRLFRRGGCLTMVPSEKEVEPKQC
# Epidermal growth factor receptor (Homo sapiens), P00533 [UNDEFINED MUTATION], sequence (P00533 whole entry, looked up, change not shown): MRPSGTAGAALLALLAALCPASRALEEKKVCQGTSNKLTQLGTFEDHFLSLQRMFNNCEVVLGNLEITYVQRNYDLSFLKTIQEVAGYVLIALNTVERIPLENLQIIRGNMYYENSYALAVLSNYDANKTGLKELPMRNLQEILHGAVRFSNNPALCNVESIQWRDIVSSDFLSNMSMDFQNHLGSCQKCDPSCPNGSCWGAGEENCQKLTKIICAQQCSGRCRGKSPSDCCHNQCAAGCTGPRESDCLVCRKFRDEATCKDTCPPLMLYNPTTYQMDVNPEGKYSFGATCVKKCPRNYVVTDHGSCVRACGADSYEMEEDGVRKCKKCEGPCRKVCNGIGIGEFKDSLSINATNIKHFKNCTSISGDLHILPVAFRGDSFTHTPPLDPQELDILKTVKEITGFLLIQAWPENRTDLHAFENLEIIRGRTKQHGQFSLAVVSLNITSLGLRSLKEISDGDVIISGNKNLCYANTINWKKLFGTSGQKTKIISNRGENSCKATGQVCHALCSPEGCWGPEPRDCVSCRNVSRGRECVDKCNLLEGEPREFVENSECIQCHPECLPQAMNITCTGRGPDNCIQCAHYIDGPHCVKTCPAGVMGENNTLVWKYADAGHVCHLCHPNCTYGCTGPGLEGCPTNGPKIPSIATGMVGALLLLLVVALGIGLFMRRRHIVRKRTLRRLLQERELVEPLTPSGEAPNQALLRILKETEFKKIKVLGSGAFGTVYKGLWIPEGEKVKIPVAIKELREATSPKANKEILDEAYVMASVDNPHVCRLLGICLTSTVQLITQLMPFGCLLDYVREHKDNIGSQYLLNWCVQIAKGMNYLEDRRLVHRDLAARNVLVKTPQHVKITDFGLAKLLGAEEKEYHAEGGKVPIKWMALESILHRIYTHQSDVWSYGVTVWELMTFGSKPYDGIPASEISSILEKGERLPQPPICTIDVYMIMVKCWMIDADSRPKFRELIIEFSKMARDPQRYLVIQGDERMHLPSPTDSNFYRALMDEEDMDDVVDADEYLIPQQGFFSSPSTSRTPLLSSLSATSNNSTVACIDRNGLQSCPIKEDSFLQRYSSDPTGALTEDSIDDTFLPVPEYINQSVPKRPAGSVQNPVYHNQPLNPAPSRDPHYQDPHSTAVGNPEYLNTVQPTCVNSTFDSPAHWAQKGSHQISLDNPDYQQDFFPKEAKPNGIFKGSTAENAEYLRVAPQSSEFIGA
# Receptor-type tyrosine-protein kinase FLT3 (Homo sapiens), sequence (P36888 whole entry): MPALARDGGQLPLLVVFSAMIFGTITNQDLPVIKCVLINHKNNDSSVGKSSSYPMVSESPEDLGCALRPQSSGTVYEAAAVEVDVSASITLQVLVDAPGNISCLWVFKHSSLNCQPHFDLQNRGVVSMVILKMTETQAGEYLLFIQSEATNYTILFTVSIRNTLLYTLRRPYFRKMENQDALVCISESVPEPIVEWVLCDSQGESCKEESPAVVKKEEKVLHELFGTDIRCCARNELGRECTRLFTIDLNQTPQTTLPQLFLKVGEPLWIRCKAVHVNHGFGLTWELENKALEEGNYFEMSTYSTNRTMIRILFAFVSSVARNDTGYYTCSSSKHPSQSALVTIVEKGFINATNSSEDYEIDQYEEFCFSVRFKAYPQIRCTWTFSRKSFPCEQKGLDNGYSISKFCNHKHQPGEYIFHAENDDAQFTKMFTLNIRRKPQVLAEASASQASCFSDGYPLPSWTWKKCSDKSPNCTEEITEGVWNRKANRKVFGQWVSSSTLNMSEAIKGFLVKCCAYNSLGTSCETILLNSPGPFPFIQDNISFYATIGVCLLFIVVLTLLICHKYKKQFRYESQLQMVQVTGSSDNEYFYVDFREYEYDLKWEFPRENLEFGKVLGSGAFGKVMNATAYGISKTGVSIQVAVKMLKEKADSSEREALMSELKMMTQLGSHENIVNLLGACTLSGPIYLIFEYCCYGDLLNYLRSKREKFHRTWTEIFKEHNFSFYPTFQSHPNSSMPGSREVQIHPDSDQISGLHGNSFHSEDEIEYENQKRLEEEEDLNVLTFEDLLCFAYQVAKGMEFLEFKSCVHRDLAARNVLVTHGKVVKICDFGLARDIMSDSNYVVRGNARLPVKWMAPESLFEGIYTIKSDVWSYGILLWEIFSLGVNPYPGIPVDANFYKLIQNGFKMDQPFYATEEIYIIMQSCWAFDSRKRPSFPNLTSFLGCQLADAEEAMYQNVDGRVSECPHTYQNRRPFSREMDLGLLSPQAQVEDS
# Casein kinase I isoform delta (Homo sapiens), sequence (P48730 whole entry, looked up, canonical isoform): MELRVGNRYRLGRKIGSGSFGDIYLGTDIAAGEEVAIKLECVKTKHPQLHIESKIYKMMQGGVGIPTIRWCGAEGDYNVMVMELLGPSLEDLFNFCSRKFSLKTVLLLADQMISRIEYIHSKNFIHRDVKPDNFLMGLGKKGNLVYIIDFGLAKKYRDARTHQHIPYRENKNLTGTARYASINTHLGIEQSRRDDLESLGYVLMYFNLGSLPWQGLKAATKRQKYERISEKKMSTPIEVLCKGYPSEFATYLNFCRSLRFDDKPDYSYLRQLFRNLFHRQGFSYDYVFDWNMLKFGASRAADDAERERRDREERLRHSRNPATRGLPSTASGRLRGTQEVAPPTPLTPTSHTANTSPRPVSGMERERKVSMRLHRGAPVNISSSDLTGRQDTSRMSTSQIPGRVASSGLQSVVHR
# MAP kinase-interacting serine/threonine-protein kinase 2 (Homo sapiens), sequence (Q9HBH9 whole entry, looked up, canonical isoform): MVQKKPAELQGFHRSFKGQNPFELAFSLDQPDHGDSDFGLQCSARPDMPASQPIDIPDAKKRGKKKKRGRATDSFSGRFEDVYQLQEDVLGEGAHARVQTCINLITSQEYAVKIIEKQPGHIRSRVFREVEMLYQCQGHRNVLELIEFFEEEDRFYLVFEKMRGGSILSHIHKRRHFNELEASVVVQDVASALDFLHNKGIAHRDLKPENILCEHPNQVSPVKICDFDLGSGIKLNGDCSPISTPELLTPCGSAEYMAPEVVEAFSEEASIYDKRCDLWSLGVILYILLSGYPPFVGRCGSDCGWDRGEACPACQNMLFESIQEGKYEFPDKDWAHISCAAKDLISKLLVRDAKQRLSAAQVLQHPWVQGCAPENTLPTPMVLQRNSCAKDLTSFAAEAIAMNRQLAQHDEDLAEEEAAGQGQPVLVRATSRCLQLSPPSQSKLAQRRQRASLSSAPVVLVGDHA
# Ribosomal protein S6 kinase alpha-3 (Homo sapiens), sequence (P51812 whole entry): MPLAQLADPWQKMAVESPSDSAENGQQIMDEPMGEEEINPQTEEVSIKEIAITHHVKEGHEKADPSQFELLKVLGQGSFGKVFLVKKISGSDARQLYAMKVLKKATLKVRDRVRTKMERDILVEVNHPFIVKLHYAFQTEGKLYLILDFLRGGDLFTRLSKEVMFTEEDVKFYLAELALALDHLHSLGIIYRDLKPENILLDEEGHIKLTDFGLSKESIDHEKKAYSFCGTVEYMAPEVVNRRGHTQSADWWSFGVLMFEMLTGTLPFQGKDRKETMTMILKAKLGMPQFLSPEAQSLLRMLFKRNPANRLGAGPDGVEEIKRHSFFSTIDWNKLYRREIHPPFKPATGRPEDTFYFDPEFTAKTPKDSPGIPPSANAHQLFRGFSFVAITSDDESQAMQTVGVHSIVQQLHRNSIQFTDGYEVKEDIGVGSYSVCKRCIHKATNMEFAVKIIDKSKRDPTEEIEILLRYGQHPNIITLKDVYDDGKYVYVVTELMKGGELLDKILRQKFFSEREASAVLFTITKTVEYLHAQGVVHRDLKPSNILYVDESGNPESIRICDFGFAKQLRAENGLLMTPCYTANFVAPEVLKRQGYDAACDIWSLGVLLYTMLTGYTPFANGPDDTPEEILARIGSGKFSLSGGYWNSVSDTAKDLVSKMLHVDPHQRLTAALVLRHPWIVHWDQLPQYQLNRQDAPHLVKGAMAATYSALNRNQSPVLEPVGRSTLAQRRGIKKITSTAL
# 5'-AMP-activated protein kinase catalytic subunit alpha-2 (Homo sapiens), sequence (P54646 whole entry, looked up): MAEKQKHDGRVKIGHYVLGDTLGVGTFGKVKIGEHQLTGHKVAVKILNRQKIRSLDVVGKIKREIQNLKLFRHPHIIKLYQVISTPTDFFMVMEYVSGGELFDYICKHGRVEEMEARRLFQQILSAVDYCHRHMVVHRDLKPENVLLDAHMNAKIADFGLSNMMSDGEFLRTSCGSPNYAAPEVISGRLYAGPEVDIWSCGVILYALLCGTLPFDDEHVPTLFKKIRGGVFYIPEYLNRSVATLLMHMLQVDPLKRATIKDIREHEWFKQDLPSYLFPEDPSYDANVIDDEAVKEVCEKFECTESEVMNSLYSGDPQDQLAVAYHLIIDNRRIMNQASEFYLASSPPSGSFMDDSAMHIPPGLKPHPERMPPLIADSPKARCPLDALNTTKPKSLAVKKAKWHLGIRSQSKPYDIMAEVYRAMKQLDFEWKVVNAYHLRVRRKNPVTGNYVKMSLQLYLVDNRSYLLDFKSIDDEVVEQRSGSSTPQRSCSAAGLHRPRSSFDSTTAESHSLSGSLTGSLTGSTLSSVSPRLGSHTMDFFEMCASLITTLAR
compound,measurement,setting,value
FC(F)(F)c1ccc2c(c1)nc(-c1cccnc1)n2C1CC1 [MSD-CYP11B2-Negative-control],residual activity,[1],100%
same,residual activity,[2],100%
same,residual activity,[3],100%
same,residual activity,[4],100%
same,residual activity,[5],100%
same,inhibition,[6],60.4%
same,residual activity,[7],100%
same,residual activity,[8],100%
same,residual activity,[9],100%
same,residual activity,[10],100%
same,inhibition,[11],11.7%
same,residual activity,[12],100%
same,residual activity,[13],100%
same,residual activity,[14],100%
same,residual activity,[15],100%
same,residual activity,[16],100%
same,residual activity,[17],100%
same,residual activity,[18],93%
same,residual activity,[19],87%
same,residual activity,[20],100%
same,residual activity,[21],100%
same,residual activity,[22],100%
same,residual activity,[23],100%
same,residual activity,[24],100%
same,residual activity,[25],100%
same,residual activity,[26],100%
same,residual activity,[27],100%
same,residual activity,[28],100%
same,residual activity,[29],83%
same,residual activity,[30],100%
same,residual activity,[31],100%
same,residual activity,[32],100%
same,residual activity,[33],99%
same,residual activity,[34],100%
same,residual activity,[35],71%
same,residual activity,[36],100%
same,residual activity,[37],100%
same,inhibition,[38],-2.5%
same,inhibition,[39],-2.64%
same,residual activity,[40],100%
same,residual activity,[41],100%
same,residual activity,[42],100%
same,residual activity,[43],100%
same,residual activity,[44],100%
same,residual activity,[45],100%
CC(C)(O)c1cncc(-c2nc3ccc(F)cc3n2C2CC2)c1 [MSD-CYP11B2],residual activity,[1],100%
same,residual activity,[2],100%
same,residual activity,[3],100%
same,residual activity,[4],100%
same,residual activity,[5],100%
same,inhibition,[6],15.6%
same,residual activity,[7],100%
same,residual activity,[8],100%
same,residual activity,[9],100%
same,residual activity,[10],100%
same,inhibition,[11],23.8%
same,residual activity,[12],97%
same,residual activity,[13],77%
same,residual activity,[14],100%
same,residual activity,[15],100%
same,residual activity,[16],94%
same,residual activity,[17],98%
same,residual activity,[18],93%
same,residual activity,[19],100%
same,residual activity,[20],100%
same,residual activity,[21],100%
same,residual activity,[22],100%
same,residual activity,[23],100%
same,residual activity,[24],100%
same,residual activity,[25],100%
same,residual activity,[26],100%
same,residual activity,[27],97%
same,residual activity,[28],100%
same,residual activity,[29],99%
same,residual activity,[30],100%
same,residual activity,[31],100%
same,residual activity,[32],100%
same,residual activity,[33],100%
same,residual activity,[34],100%
same,residual activity,[35],69%
same,residual activity,[36],94%
same,residual activity,[37],100%
same,inhibition,[38],0.18%
same,inhibition,[39],-9.57%
same,residual activity,[40],100%
same,residual activity,[41],100%
same,residual activity,[42],100%
same,residual activity,[43],97%
same,residual activity,[44],100%
same,residual activity,[45],100%
